In patent US20200214330A1, “RICE PROTEIN HYDROLYSATES WITH ANTI-INFLAMMATORY PROPERTIES” (ABBOTT LABORATORIES, priority 2017, published 2020):

Assays:
Type in all cases: cell-based, murine
[1] = tested on: TNFα secretion from RAW 264.7 cells; assay: LPS-induced TNFα secretion from RAW 264.7 macrophage cells; conditions: 1 hour pretreatment at 0.5 μg/mL, FIG. 11
Method: (§1) FIG. 11 illustrates in vitro early (6 hours after LPS stimulation) and late (24 hours after LPS stimulation) phase inhibition of TNFα secretion from macrophage cells (RAW264.7) pre-incubated with different levels of curcumin for 1 hour and then treated with LPS; Specific studies have determined effects of the hydrolysates on TNFα secretion, 4-1BBL expression, and NF-κB Expression in murine macrophages (RAW 264.7 cells) treated with LPS (see FIGS. 1-13). RPH-1 inhibits early and late phase TNFα secretion from cells in culture.

[2] = tested on: 4-1BBL expression in RAW 264.7 cells; assay: LPS-induced 4-1BBL expression in RAW 264.7 macrophage cells; conditions: 1 hour pretreatment at 0.5 μg/mL, FIG. 12
Method: as §1, with “FIG. 5 illustrates in vitro early (6 hours after LPS stimulation) and late phase (24 hours after LPS stimulation) inhibition of 4-1BBL expression in macrophage cells (RAW264.7) pre-incubated for 1 hour with RPH-land then treated with LPS; […] FIG. 12” for “FIG. 11”, “of 4-1BBL expression in” for “of TNFα secretion from”, “pre-incubated for 1 hour” for “pre-incubated”, “curcumin” for “curcumin for 1 hour”

[3] = tested on: NF-κB activation in RAW 264.7 cells; assay: LPS-induced NF-κB activation in RAW 264.7 macrophage cells; conditions: 2.5 μg/mL pretreatment for 2 hours; 30 min after LPS stimulation; FIG. 13
Method: FIG. 6 illustrates in vitro NF-κB activation (30 min after LPS stimulation) in macrophage cells (RAW264.7) preincubated for 2 hours with RPH-1 and then treated with LPS; FIG. 13 illustrates in vitro inhibition of nuclear factor kappa-light-chain-enhancer of activated B cells (NF-κB) activation in macrophage cells (RAW264.7) pre-incubated with curcumin for 2 hours and treated with LPS for 30 minutes; Specific studies have determined effects of the hydrolysates on TNFα secretion, 4-1BBL expression, and NF-κB Expression in murine macrophages (RAW 264.7 cells) treated with LPS (see FIGS. 1-13). Pretreatment with curcumin at 0.5 μg/mL and […] for 1 hour led to an inhibition of TNFα secretion (FIG. 11) and 4-IBBL expression (FIG. 12) at 6 hours and 24 hours following LPS treatment.

**Q.** With `COc1cc(C=CC(=O)CC(=O)C=Cc2ccc(O)c(OC)c2)ccc1O` [curcumin, 1,7-Bis-(4-hydroxy-3-methoxyphenyl)-hepta-1,6-diene-3,5-dione] as the compound, how does the “TNFα secretion, early phase” value ([1]; 6 hours after LPS) read?
**A.** The value was “inhibition”.

**Q.** And the “TNFα secretion, late phase” value ([1]; 24 hours after LPS)?
**A.** The value was “inhibition”.

**Q.** And the “4-1BBL expression, early phase” value ([2]; 6 hours after LPS)?
**A.** The value was “inhibition”.

**Q.** And the “4-1BBL expression, late phase” value ([2]; 24 hours after LPS)?
**A.** The value was “inhibition”.

**Q.** What about the “LPS-induced NF-κB expression” value [3] of the same compound?
**A.** The value was “decreased”.
